Results taken from ChEMBL document CHEMBL5291721, “A preclinical secondary pharmacology resource illuminates target-adverse drug reaction associations of marketed drugs” (Nat Commun, 2023).

Experiments:
[1] = molecular target: T1, Alpha-2A adrenergic receptor (Homo sapiens, UniProt P08913); assay type: functional, cell-based
T1 sequence (P08913 whole entry): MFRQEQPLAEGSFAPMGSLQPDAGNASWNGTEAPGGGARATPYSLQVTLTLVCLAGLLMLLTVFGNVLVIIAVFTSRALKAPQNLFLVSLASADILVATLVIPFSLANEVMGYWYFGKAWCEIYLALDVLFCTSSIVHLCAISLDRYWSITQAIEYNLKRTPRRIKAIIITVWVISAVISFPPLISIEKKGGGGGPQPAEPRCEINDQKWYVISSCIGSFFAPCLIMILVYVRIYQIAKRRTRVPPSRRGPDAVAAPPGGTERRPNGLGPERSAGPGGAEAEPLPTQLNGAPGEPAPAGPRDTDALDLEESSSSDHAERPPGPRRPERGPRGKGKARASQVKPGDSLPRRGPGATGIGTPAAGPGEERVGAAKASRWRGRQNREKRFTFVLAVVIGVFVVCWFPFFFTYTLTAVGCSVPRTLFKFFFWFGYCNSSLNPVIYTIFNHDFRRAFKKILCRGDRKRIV

[2] = molecular target: Glutamate receptor ionotropic, NMDA 1 (Rattus norvegicus, UniProt P35439)
[3] = molecular target: T2, Alpha-2B adrenergic receptor (Homo sapiens, UniProt P18089)
T2 sequence (P18089 whole entry): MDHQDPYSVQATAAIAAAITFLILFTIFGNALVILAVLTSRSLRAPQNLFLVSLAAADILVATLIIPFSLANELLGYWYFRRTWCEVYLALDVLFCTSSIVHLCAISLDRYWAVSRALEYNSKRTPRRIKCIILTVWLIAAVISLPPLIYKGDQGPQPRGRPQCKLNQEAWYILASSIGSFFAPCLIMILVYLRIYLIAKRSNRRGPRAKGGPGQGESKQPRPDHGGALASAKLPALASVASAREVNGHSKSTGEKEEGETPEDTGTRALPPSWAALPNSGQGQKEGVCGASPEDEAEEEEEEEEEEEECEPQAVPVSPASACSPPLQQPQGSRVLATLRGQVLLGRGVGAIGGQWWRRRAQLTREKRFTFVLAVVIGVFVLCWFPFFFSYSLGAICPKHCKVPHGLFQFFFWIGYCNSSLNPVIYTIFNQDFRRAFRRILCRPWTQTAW

Adenosine receptor A1 = molecular target: T3, Adenosine receptor A1 (Homo sapiens, UniProt P30542)
T3 sequence (P30542 whole entry): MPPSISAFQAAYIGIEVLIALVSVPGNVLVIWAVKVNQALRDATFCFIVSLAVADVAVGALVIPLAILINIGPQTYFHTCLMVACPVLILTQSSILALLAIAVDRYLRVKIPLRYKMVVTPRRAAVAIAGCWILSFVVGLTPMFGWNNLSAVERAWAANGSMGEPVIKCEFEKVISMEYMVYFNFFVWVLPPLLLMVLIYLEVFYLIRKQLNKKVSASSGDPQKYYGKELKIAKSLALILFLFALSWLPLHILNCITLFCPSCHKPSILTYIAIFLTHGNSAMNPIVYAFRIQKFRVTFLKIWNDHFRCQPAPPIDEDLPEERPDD

[4] = molecular target: Voltage-gated inwardly rectifying potassium channel KCNH2 (Homo sapiens, UniProt Q12809); assay type: functional; conditions: read-out: AC50
[5] = molecular target: T4, 5-hydroxytryptamine receptor 3A (Homo sapiens, UniProt P46098); assay type: functional
T4 sequence (P46098 whole entry): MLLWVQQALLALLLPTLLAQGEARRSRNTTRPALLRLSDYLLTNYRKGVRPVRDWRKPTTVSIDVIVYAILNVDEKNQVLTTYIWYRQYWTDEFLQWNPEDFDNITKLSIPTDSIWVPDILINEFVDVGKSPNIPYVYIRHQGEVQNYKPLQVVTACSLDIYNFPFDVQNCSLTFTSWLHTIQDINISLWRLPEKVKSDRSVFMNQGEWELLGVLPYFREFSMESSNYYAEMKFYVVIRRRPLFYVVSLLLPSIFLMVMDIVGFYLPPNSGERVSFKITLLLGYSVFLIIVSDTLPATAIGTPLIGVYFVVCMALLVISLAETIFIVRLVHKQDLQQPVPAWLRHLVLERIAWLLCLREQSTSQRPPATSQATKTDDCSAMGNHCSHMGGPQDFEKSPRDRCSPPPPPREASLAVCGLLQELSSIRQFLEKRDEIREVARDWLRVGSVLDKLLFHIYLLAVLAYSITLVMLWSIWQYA

[6] = molecular target: cGMP-inhibited 3',5'-cyclic phosphodiesterase 3A (Homo sapiens, UniProt Q14432); assay type: functional
Motilin receptor = Motilin receptor (Homo sapiens, UniProt O43193)
Thromboxane A2 receptor = molecular target: T5, Thromboxane A2 receptor (Homo sapiens, UniProt P21731)
T5 sequence (P21731 whole entry): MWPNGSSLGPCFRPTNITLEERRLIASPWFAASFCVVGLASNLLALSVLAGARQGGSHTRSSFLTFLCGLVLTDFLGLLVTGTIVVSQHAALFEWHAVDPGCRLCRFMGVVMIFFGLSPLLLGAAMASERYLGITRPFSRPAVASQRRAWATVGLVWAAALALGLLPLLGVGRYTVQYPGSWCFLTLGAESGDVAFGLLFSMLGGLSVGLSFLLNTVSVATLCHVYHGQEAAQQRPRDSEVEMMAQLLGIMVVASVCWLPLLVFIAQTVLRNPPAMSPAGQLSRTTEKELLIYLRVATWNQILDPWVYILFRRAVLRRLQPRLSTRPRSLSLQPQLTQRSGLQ

[7] = molecular target: Sodium-dependent noradrenaline transporter (Homo sapiens, UniProt P23975)
Cannabinoid receptor 1 = Cannabinoid receptor 1 (Homo sapiens, UniProt P21554); assay type: functional, cell-based
[8] = molecular target: T6, Alpha-1A adrenergic receptor (Homo sapiens, UniProt P35348); assay type: functional, cell-based
T6 sequence (P35348 whole entry): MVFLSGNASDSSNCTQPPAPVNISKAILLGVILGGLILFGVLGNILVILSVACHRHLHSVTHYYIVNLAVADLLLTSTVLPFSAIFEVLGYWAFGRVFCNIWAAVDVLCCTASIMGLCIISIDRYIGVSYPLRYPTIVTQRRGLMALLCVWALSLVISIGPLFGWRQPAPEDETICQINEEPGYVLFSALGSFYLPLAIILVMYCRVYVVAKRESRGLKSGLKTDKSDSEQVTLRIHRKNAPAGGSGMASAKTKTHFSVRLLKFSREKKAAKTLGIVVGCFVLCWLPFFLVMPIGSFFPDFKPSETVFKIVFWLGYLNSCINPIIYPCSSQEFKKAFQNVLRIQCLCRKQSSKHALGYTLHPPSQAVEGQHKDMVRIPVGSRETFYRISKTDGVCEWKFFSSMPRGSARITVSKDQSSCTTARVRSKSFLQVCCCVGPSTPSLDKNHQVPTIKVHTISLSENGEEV
Also: assay procedure not described here.

Cannabinoid receptor 1, sequence (P21554 whole entry): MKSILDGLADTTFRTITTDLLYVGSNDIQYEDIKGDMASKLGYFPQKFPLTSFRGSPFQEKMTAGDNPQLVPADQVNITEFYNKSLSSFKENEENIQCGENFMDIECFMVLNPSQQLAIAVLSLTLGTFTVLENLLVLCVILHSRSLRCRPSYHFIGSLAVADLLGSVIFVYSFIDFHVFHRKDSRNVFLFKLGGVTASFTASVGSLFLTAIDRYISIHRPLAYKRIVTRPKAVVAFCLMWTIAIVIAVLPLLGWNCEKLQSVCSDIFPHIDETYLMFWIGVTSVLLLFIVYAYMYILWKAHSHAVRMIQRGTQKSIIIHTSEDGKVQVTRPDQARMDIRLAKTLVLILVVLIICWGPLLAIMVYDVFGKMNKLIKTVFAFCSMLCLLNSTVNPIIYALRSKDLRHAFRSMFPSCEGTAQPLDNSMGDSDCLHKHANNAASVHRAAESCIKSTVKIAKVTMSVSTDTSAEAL
Voltage-gated inwardly rectifying potassium channel KCNH2, sequence (Q12809 whole entry): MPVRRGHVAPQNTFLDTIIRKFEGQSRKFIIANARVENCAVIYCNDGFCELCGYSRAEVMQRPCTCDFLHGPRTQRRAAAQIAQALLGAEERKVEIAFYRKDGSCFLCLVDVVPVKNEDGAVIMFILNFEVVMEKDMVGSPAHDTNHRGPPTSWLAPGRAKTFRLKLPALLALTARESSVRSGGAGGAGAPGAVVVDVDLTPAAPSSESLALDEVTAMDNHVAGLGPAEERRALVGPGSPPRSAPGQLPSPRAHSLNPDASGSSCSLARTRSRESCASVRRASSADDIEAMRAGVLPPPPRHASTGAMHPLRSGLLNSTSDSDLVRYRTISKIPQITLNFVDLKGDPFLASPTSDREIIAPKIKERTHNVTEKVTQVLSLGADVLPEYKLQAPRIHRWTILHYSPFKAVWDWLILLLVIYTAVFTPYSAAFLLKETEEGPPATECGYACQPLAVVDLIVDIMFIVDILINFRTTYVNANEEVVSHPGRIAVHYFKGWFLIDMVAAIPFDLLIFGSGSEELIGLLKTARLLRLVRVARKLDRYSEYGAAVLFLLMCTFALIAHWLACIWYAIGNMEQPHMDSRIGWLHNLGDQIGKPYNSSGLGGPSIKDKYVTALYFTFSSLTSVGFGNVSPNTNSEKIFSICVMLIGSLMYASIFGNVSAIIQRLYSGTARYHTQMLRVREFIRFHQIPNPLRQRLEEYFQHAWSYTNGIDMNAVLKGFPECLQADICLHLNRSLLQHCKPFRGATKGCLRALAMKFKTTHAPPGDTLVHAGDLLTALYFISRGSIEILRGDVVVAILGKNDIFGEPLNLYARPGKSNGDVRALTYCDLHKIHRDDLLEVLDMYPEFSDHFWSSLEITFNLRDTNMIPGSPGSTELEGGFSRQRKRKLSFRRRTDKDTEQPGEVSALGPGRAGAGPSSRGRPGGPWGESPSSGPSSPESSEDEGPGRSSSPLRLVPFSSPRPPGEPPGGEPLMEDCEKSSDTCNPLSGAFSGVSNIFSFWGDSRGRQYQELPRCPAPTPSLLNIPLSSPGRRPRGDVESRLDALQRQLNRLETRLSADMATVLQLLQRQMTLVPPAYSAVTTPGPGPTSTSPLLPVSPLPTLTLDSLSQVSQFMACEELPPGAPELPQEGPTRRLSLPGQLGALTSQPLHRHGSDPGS
cGMP-inhibited 3',5'-cyclic phosphodiesterase 3A, sequence (Q14432 whole entry): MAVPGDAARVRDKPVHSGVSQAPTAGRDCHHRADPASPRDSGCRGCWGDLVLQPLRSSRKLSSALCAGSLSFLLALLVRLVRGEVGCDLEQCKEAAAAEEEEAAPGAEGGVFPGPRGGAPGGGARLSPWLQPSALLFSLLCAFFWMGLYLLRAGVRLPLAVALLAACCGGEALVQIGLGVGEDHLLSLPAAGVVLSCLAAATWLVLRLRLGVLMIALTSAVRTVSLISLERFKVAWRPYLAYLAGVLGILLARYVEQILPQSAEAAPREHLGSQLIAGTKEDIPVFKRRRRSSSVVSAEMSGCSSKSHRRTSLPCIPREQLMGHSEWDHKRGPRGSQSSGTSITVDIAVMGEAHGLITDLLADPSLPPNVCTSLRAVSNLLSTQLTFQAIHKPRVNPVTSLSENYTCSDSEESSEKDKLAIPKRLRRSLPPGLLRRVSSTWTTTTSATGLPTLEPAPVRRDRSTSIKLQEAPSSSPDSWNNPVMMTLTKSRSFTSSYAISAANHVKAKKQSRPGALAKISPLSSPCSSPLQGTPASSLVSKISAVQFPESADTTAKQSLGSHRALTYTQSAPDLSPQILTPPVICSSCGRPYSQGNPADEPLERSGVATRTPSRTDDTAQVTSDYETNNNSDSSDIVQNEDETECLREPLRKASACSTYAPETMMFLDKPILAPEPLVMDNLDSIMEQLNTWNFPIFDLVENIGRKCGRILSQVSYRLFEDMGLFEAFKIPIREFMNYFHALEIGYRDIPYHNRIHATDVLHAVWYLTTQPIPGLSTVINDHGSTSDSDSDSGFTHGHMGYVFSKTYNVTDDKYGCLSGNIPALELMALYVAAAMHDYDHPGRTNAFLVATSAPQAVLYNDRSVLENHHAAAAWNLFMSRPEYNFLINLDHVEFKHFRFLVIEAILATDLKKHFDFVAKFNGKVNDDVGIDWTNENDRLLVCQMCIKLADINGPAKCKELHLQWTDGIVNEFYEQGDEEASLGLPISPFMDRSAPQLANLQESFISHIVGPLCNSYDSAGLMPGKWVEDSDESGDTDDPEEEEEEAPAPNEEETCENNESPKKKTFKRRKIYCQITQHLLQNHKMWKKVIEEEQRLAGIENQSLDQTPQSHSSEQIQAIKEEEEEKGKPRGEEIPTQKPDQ
Motilin receptor, sequence (O43193 whole entry): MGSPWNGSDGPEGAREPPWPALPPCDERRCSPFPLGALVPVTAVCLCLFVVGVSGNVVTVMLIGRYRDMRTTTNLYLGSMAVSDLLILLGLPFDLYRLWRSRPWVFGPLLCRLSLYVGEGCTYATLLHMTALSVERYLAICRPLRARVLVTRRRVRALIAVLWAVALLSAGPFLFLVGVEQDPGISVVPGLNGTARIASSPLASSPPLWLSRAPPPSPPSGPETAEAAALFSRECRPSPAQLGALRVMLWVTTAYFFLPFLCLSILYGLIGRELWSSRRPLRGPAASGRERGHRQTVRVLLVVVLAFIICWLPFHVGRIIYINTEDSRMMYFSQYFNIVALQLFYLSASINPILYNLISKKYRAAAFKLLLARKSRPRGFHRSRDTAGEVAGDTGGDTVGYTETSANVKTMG
Sodium-dependent noradrenaline transporter, sequence (P23975 whole entry): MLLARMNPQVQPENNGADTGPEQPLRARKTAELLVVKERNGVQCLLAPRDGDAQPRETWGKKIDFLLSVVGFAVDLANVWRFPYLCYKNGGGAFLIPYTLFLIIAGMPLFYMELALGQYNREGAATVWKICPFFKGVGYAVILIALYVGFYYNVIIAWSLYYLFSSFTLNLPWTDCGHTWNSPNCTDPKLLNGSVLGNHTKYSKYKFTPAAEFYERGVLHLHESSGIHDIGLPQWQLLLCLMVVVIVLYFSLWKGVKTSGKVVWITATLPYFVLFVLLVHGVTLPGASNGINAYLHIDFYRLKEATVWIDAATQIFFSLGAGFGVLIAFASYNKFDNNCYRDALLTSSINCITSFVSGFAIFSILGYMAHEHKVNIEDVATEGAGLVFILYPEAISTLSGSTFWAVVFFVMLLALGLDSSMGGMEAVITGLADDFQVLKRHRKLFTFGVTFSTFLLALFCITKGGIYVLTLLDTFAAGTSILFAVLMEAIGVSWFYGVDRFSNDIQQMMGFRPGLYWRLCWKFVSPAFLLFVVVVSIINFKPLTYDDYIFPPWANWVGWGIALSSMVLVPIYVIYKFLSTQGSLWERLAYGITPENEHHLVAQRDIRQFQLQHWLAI

| Structure (SMILES) | AC50 [1] [µM] | AC50 [2] [µM] | AC50 [3] [µM] | AC50 (Adenosine receptor A1) [µM] | AC50 [4] [µM] | AC50 [5] [µM] | AC50 [6] [µM] | AC50 (Motilin receptor) [µM] | AC50 (Thromboxane A2 receptor) [µM] | AC50 [7] [µM] | AC50 (Cannabinoid receptor 1) [µM] | AC50 [8] [µM] |
| --- | --- | --- | --- | --- | --- | --- | --- | --- | --- | --- | --- | --- |
| CCC1(CC)C(=O)NC(=O)N(C)C1=O [METHARBITAL] | > 10 | > 10 | > 10 | > 10 | > 30 | > 30 | > 30 | > 10 | > 10 | > 10 | – | – |
| COC(=O)[C@H]1[C@H]2C[C@@H]3c4[nH]c5ccccc5c4CCN3C[C@H]2C[C@@H](OC(=O)c2cc(OC)c(OC)c(OC)c2)[C@@H]1OC [DESERPIDINE] | > 10 | > 10 | > 10 | > 30 | 2.45 | > 30 | > 30 | > 30 | > 30 | > 10 | – | – |
| OCC(O)COc1ccc(Cl)cc1 (stereo not given) | > 10 | > 10 | > 10 | > 10 | > 30 | > 30 | > 30 | > 10 | > 10 | > 10 | – | – |
| O=C(O[C@H]1C[N+]2(CCCOc3ccccc3)CCC1CC2)C(O)(c1cccs1)c1cccs1 [ACLIDINIUM BROMIDE] | – | > 10 | > 10 | > 30 | 0.43 | > 30 | > 30 | > 10 | > 30 | > 10 | – | – |
| Cc1cnc(Nc2ccc(OCCN3CCCC3)cc2)nc1Nc1cccc(S(=O)(=O)NC(C)(C)C)c1 [FEDRATINIB] | > 10 | > 10 | > 10 | 7.17 | 0.82 | > 30 | > 30 | 14 | > 30 | 0.24 | – | – |
| Cc1nnc2n1-c1ccc(Cl)cc1C(c1ccccc1)=NC2 [ALPRAZOLAM] | > 10 | > 10 | – | > 30 | > 30 | > 30 | > 30 | > 10 | > 30 | > 10 | > 30 | > 30 |
| CCOC(=O)C1=C(C)NC(C)=C(C(=O)OC)C1c1cccc(Cl)c1Cl (stereo not given) [FELODIPINE] | > 10 | > 10 | – | > 30 | > 30 | > 10 | > 30 | > 10 | 8.41 | > 10 | > 30 | > 30 |
| CCCCOC(=O)c1ccc(N)cc1 [BUTAMBEN] | > 30 | > 30 | – | > 30 | > 30 | > 30 | > 30 | > 30 | > 30 | > 30 | > 30 | > 30 |
| CCOC(=O)O[C@]1(C(=O)COC(=O)CC)CC[C@H]2[C@@H]3CCC4=CC(=O)C=C[C@]4(C)[C@H]3[C@@H](O)C[C@@]21C [PREDNICARBATE] | > 10 | > 10 | > 10 | > 10 | > 30 | > 30 | > 30 | > 10 | > 10 | > 10 | – | – |
| CN(C)CCOC(=O)C(c1ccccc1)C1(O)CCCC1 (stereo not given) [CYCLOPENTOLATE] | > 10 | > 10 | > 10 | > 10 | > 30 | > 30 | > 30 | > 10 | > 10 | > 30 | – | – |
| CCN(C(C)=O)c1cccc(-c2ccnc3c(C#N)cnn23)c1 [ZALEPLON] | > 10 | > 10 | – | > 30 | > 30 | > 30 | 10 | > 30 | > 30 | > 30 | > 30 | > 30 |
| CCC(NC(C)C)C(O)c1ccc(O)c(O)c1 (stereo not given) [ISOETHARINE] | > 30 | > 30 | > 30 | > 30 | > 30 | > 30 | > 30 | > 30 | > 30 | > 30 | – | – |
| O=C(O)CCCC[C@@H]1SC[C@@H]2NC(=O)N[C@@H]21 [BIOTIN] | > 10 | – | > 10 | > 10 | > 30 | > 30 | > 30 | > 10 | > 10 | > 10 | – | – |
| CC1=C(CC(=O)O)c2cc(F)ccc2/C1=C\c1ccc([S+](C)[O-])cc1 (stereo not given) | > 10 | > 10 | – | > 30 | > 30 | > 30 | > 30 | > 10 | > 30 | > 30 | > 30 | > 30 |
| CC(C)CN(C[C@@H](O)[C@H](Cc1ccccc1)NC(=O)O[C@H]1CCOC1)S(=O)(=O)c1ccc(N)cc1 | > 10 | > 10 | – | > 30 | > 30 | > 30 | > 30 | 7.3 | > 30 | > 10 | > 30 | 12 |
| CC1Cc2ccccc2N1NC(=O)c1ccc(Cl)c(S(N)(=O)=O)c1 (stereo not given) [INDAPAMIDE] | > 10 | > 10 | – | > 30 | > 30 | > 30 | > 10 | > 10 | > 30 | > 30 | > 30 | > 30 |
